The subject of assay [1] is SH-SY5Y. In words: Neuroprotective effect against 6-OHDA-induced neurotoxicity in human SH-SY5Y cells at 0.1 uM treated 1 hr before 6-OHDA injury after 24 hrs by MTT assay relative to control. Format: functional. A general note: Tetrazolium dyes change colour on reduction, which living cells bring about.
Assay [2] relates to SH-SY5Y. In words: Neuroprotective effect against 6-OHDA-induced neurotoxicity in human SH-SY5Y cells at 1 uM treated 1 hr before 6-OHDA injury after 24 hrs by MTT assay relative to control. The assay is classed as functional.

`Cc1c(O)cc(CCc2ccccc2)cc1O[C@@H]1O[C@H](CO)[C@@H](O)[C@H](O)[C@H]1O`: the Activity in the assay with SH-SY5Y [1] amounted to 50.9%; in the assay with SH-SY5Y [2] it was 72.4%.

As to `COc1cc(OC)cc(C(O[C@@H]2O[C@H](CO)[C@@H](O)[C@H](O)[C@H]2O)C(O)c2ccccc2)c1` (stereo partly drawn), the Activity in the assay with SH-SY5Y [1] turned out to be 29.5%; with SH-SY5Y [2], 97.3%.

Turning to `O=C(O[C@@H]1Cc2c(O)cc(O)cc2O[C@@H]1c1cc(O)c(O)c(O)c1)c1cc(O)c(O)c(O)c1` [EPIGALOCATECHIN GALLATE], the figures for the Activity with SH-SY5Y [1] and with SH-SY5Y [2] were 20.1% and 42.2%, respectively.

As to `COc1ccc(CCc2cc(O)c(C)c(O[C@@H]3O[C@H](CO)[C@@H](O)[C@H](O)[C@H]3O)c2)cc1`, the Activity is on record as 31% in the assay with SH-SY5Y [1] and 65.6% with SH-SY5Y [2].

The values are drawn from ChEMBL document CHEMBL1157332, “Neuroprotective bibenzyl glycosides of Stemona tuberosa roots” (2006).
